Entries after “also recorded” stand apart in the source; their conditions may differ.

Common to all, as to assay type: cell-based, human
For data set [1], the system named is TS organoids. As to the kind of experiment: Timothy Syndrome disease model, calcium transients and EADs. The procedure:
Timothy Syndrome hiPSCs were generated and differentiated into CMs as previously described. Briefly, fibroblasts were isolated from patients with Timothy Syndrome (TS line) and a control healthy fibroblast line (#3, IMR90 cell line) and transduced by lipofection using established episomal vectors. […] 2 μM IWP-3 (Wnt inhibitor, #SML0533, Lot #102m4613V, Sigma-Aldrich) was added for days 5-11, in DF20 for days 5-7 and DF5 for day 7 onwards.
(§1) Tissues (organoids and FCTs) within culture platforms were loaded with Fluo-4 NW (50% v/v, Life Technologies) in RPMI+B27 media containing 5 μM blebbistatin (Sigma) to reduce movement artifacts, for 30 minutes at 37° C. Videos were acquired at a rate of 150 frames per second using a Pike F-032 camera (Allied Vision Technologies) controlled by the custom designed, free-source SPLASSH software. Videos were analyzed in MATLAB using a custom script that calculated the temporal changes in calcium fluorescence intensity. Specifically, each frame was normalized to a baseline background region to give baseline-corrected changes in minimum and maximum fluorescence values for each frame. This temporal change in fluorescence intensity was presented as a calcium transient trace from which measurements were obtained.
(§2) Calcium transients were analyzed to measure the irregularity of various parameters as previously described. Briefly, the calcium transient “timing” was determined as the peak-to peak value of two successive beats as defined by the peak maxima. Calcium transient “amplitude” was determined by numerically integrating the area below the peak maxima relative to the baseline. […] The average rhythmicity was defined as the ratio of the parameter standard deviation to the parameter mean of the corresponding (control, constant, intensity) tissue group. Beats with parameter measurements falling outside two standard deviations from the average rhythmicity were classified as irregular.

Data set [2] concerns hiPS-CM organoids. Nature of the data set: Calcium handling (Fluo-4 calcium transients) in organoids and FCTs. To be noted: for calcium transients after drug: organoids and FCTs, verapamil or 0.002 mM thapsigargin. The procedure:
Calcium transients were analyzed using the Fluo-4 NW dye in RPMI+B27 media containing 5 μM blebbistatin to reduce movement artifacts, for 30 minutes at 37° C. Videos were acquired at a rate of 150 frames per second using a Pike F-032 camera controlled by the custom-designed, free-source SPLASSH software. Videos were analyzed in MATLAB using a custom script that calculated the temporal changes in calcium fluorescence intensity. Each frame was normalized to a baseline background region to give baseline corrected changes in minimum and maximum fluorescence values for each frame. This temporal change in fluorescence intensity was presented as a calcium transient trace. The calcium transient timing was determined as the peak-to-peak value of two successive beats as defined by the peak maxima. Calcium transient amplitude was determined by numerically integrating the area below the peak maxima relative to the baseline. […] The average rhythmicity was defined as the ratio of the parameter standard deviation to the parameter mean of the corresponding (control, constant, intensity) tissue group. Beats with parameter measurements falling outside two standard deviations from the average rhythmicity were classified as irregular.
as §1, §2

For data set [3], the system named is hiPS-CM organoids. Nature of the data set: Dose response curves of drugs in engineered cardiac tissue (beat frequency, force, EC50). The conditions noted are these: for beat frequency (BPM): engineered cardiac micro-tissue, increasing drug concentrations. The procedure: Tissue contractility was measured by tracking the change in the projected tissue area as a function of time. Live cell, bright field videos were acquired at rates of 150 frames per second using a Pike F-032b (Allied Vision Technologies) camera controlled with the custom […] software. Acquired video frames were inverted and an automated intensity threshold was used to identify cell location in the video frame. First, a baseline time point in the video corresponding to a relaxed tissue state was selected. Absolute differences in cell area from the baseline frame were then calculated to create a time course of cell area dynamics as a function of time. The resulting time courses were analyzed with a native MATLAB automated peak finding algorithm to determine locations of maximum cell contraction indicated by the locations of local maxima in the time courses. Beat period lengths were determined from the length of time between pairs of local maxima. Beat frequencies were determined by inverting beat periods. Contraction amplitude relaxation times were measured from the length of time required for the time course to relax in amplitude from the peak contraction amplitude of the local maxima to the calculated relaxation amplitude (e.g. the […] time was the length of time elapsed from the local maxima until the contraction time course reached 10% of the local maximum contraction difference amplitude). Drugs were diluted in standard media (RPMI+B27). […] Tissue videos were captured≥5 minutes after each dose was administered, and processed using custom image processing software as discussed above. For chronotropic drugs, bright field videos were taken at each drug concentration so that measurements of the beat frequency could be determined as a function of drug concentration. For ionotropic drugs, tissues were placed in the organ bath and force measurements were recorded as previously described at each drug concentration so that the measurements of the change in force generated could be determined as a function of drug concentration. Dose-response curves for these parameters could be constructed by using Matlab to fit the Hill Equation for sigmoid curves to the data, to determine the corresponding EC50 value.

The subject of data set [4] is hiPS-CM organoids. Nature of the data set: Force measurements (twitch tension, organ bath). The conditions noted are these: intensity-trained organoids versus other organoids and FCTs.
Data set [5] deals with TS organoids. As to the kind of experiment: Timothy Syndrome disease model, force generation in response to extracellular calcium. The conditions noted are these: Ca2+ overload with decreased force.

For `Cn1c(=O)c2c(ncn2C)n(C)c1=O` [caffeine], in data set [1], the “release of Ca2+ by caffeine after nifedipine” value is “released Ca2+ back into the cytosol”.

On to `COc1cc(N)c(Cl)cc1C(=O)NC1CCN(CCCOc2ccc(F)cc2)CC1OC` (stereo not drawn) [cisapride], for which the “incidence of EADs” value in data set [1] was “increased incidence of EADs”. For the same molecule, in data set [2] (female cardiac organoids, 1 μM), the “proarrhythmic Early After Depolarizations” value is “increased proarrythmic Early After Depolarizations”. Moreover, the “intracellular calcium transients, early after-depolarizations (EADs)” value in data set [2] (intensity-trained organoids, increasing concentrations) was “prolonged”. The proarrhythmic tendencies entry in data set [2] (other (not intensity-trained) organoids and FCTs) is “did not recapitulate proarrythmic tendencies”. The “beat frequency (BPM)” value in data set [3] was “opposite effect”.

Take `CNC[C@H](O)c1ccc(O)c(O)c1` [epinephrine]: in data set [1], the “incidence of EADs” value is recorded as “increased incidence of EADs”.

As for `CC(C)NCC(O)c1ccc(O)c(O)c1` (stereo not drawn) [isoproterenol], the “calcium transients, QT intervals, EADs under β-adrenergic stimulation” value in data set [1] is “increased calcium transients, prolonged QT intervals, and led to proarrhythmic EADs”. Besides, the “beat frequency (BPM)” value in data set [3] is given as “increases with increasing concentrations”. Besides, the “ionotropic, lusitropic and chronotropic responses” value in data set [3] (intensity-trained organoids) is “positive ionotropic (FIG. 23A), lusitropic (FIG. 23B), and chronotropic (FIG. 23C) responses; also recorded: dose-dependent effect on three functional properties”. The twitch tension result is given as “responded by increasing twitch tension” in data set [4] and “significantly increased their twitch tension” in data set [4] (listed as Isoprenaline).

As for `O=C1c2c(O)ccc(O)c2C(=O)c2c(NCCNCCO)ccc(NCCNCCO)c21` [mitoxantrone], the “beat frequency (BPM)” value in data set [3] was “opposite effect”.

With `CC(C)NCC(O)COc1cccc2ccccc12` (stereo not drawn) [propranolol], the “force generation in response to extracellular calcium” value in data set [5] is “reversed some of these effects”.

Consider `C/C=C(/C)C(=O)O[C@H]1C(C)=C2[C@H]([C@@H]1OC(=O)CCCCCCC)[C@@](C)(OC(C)=O)C[C@H](OC(=O)CCC)[C@@]1(O)[C@H]2OC(=O)[C@@]1(C)O` [thapsigargin], for which, in data set [2], the “calcium transients after drug” value was “calcium transients ceased quickly in intensity-trained organoids”.

On to `COc1ccc(CCN(C)CCCC(C#N)(c2ccc(OC)c(OC)c2)C(C)C)cc1OC` (stereo not drawn) [verapamil], for which, in data set [1] (therapeutic concentrations), the “rescue of the TS phenotype” value was “rescued the phenotype”. For the same molecule, the “calcium transients after drug” value in data set [2] is reported as “cessation of calcium transients in all tissues; also recorded: cessation of Ca2+ transients”.

ryanodine: the response to ryanodine entry in data set [2] (1 μmol/L, early-stage versus late-stage intensity trained organoids) is “intensity trained early-stage but not late-stage organoids respond”.

The values above are taken from patent US12441988B2, “Engineered adult-like human heart tissue” (THE TRUSTEES OF COLUMBIA UNIVERSITY IN THE CITY OF NEW YORK, priority 2015, dated 2025).
